Publication PMC9499467, “Phenanthroindolizidine Alkaloids Isolated from Tylophora ovata as Potent Inhibitors of Inflammation, Spheroid Growth, and Invasion of Triple-Negative Breast Cancer” (International Journal of Molecular Sciences, 2022)
Like-named read-outs stand apart in the source and are kept apart here.

Tests used:
NFκB [1] = experiment: NFκB inhibition assay (2 h), NFκB-dependent nanoluc luciferase reporter; type: cell-based, human
Method: Experiments were performed according to the published protocol. On day 1, 4 × 10^4 NFκB-MDA-MB-231-nanoluc cells were seeded into white 96 well plates (Greiner; #655098). On day 2, the medium was replaced with starvation medium and the cells were pre-incubated for 20 min with either 100 µL of DMSO (Roth; #A994.1) alone at a concentration of maximal 0.1% or with the final concentration of the diluted compounds (Table 3). To activate NFκB signaling, cells were stimulated with 1 µg/mL LPS (Sigma-Aldrich; #L2630) beforehand. NFκB-dependent luciferase activity was measured according to the manufacturer`s protocol for the Nano-Glo Luciferase Assay System (Promega, Mannheim, Germany; #N1110). NFκB-dependent luminescence was determined as relative light units (RLU) using the microplate reader Spark® (Tecan, Männedorf, Switzerland).

NFκB [2] = experiment: NFκB inhibition assay (24 h), NFκB-dependent firefly luciferase reporter; type: cell-based; settings: Homo sapiens, read-out: NFκB Inhibition 24 h IC50
Method: On day 1, 3 × 10^4 NFκB MDA-MB-231-firefly cells were seeded into white 96 well plates (Greiner; #655098). On day 2, the medium was replaced with starvation medium and the cells were pre-incubated for 20 min with either 100 µL of DMSO (Roth; #A994.1) alone at maximal 0.1%, or with the final concentration of the diluted compounds (Table 3). To activate NFκB signaling, cells were stimulated with 20 ng/mL TNFα (Peprotech, Hamburg, Germany; #300-01A). Cell lysis was performed in 20 µL 1× cell lysis buffer according to the manufacturer’s instruction for the Luciferase Assay System (Promega #E1500). NFκB-dependent luminescence was determined as relative light units (RLU) using the microplate reader Spark® (Tecan).

MDA-MB-231 = experiment: 2D cell viability (PrestoBlue resazurin) in MDA-MB-231; type: cell-based, human; settings: Homo sapiens
Method: Cell viability was determined based on resazurin-reduction in viable cells according to the PrestoBlue^TM Assay. On day 1, MDA-MB-231 (1.5 × 10^4 cells per well or 7.5 × 10^3 cells per well) were seeded into black 96 well plates (Greiner; #655090) in a total volume of 100 µL. On day 2, the compounds or DMSO (Roth; #A994.1) alone at maximal 0.1% were applied (final concentrations after serial dilution shown in Table 3). An amount of 20 µM staurosporine (Sigma-Aldrich; #S5921) served as a positive control. On day 3, the PrestoBlue^TM reagent (Invitrogen^TM, Darmstadt, Germany; #A13262) was applied according to the manufacturer`s instructions. Finally, cell viability-dependent fluorescence was recorded in relative fluorescence units (RFU) with excitation/emission (Exλ/Emλ) at 535/590 nm or 560/590 nm, using the microplate reader Spark® (Tecan).

[3] = test system: 3D co-culture spheroids of MDA-MB-231 and primary murine CAFs; experiment: 3D cell viability (ATP content) in TNBC co-culture spheroids; type: cell-based, human MDA-MB-231; settings: for IC50: Mus musculus
Method: On day 1, 3000 cells were seeded into a low-attachment 96 well plate (Greiner; #650970). […] Cell viability was determined based on the ATP content in viable cells according to the manufacturer`s instructions (Promega #G9682). Co-culture spheroids were generated for 72 h before they were grown for another 72 h with or without exposure to the compounds. […] Cell viability-dependent luminescence was determined as relative light units (RLU) using the microplate reader Spark® (Tecan).

CAFs = experiment: 2D cell viability in CAFs; type: cell-based, murine; settings: Mus musculus, 24 h, read-out: Reduction of Cell Viability 24 h IC50 in CAFs
Method: Table S1 IC50-values for reduction of cell viability determined in CAFs.
Compound Cell Viability 1
1 Cell viability of CAFs was determined 24 h post-treatment with the 2D cell viability assay. CAFs were seeded at a cell density of 2.5 × 10^3 cells per well. Compound concentration was applied in triplicates in a four-fold serial dilution starting at 1000 nM. 2 Duration of treatment. 3 Mean ± SD […]
50 µM. 4 Mean ± SD (n = 3). 5 Mean ± SD (n = 2).

HIF-1α = experiment: HIF inhibition, HIF-mediated UnaG reporter expression; type: cell-based
Method: The HIF activity after treatment with compound (1s) or with the commercially available NFκB inhibitor BAY 11-7085 ((Hycultec, Beutelsbach, Germany; #HY-10257-10),) for 24 h was determined using the UnaG-reporter gene cell line MDA-MB-468-UnaG. On day 1, 1.5 × 10^4 MDA-MB-468-UnaG cells were seeded into a black 96 well plate (Greiner; #655090). […] HIF-mediated UnaG expression was recorded in z-stacked images using the CQ1 high-content imaging system (Yokogawa, Wehr, Germany; 100× g magnification). Beforehand, the UnaG fluorescence intensity was determined in UnaG-expressing cell clones (Figure S5).
Figure 7 Compound (1s) decreases HIF-dependent gene transcription. MDA-MB-468-UnaG cells were pre-treated for 1 h without (CTRL) or with compound (1s) or BAY 11-7085 (BAY) before being grown (a,b) in the absence (normoxia; CTRL) or (c,d) presence of 100 µM CoCl2 (hypoxia) for another 24 h. (a,c) Representative fluorescence images. Scale bar: 200 µm (b,d) Total fluorescence intensity of HIF-mediated UnaG was normalized to the CTRL group. Statistical difference was calculated with one-way ANOVA (b) vs. CTRL (normoxia) (ns = not significant, * p < 0.05). (d) vs. CTRL (hypoxia) (# p < 0.05); vs. CoCl2 (* p < 0.05, ** p < 0.01, *** p < 0.001). (b,d) Columns represent the mean ± SEM (n = 3).

HIF = test system: HIF; set-up: method as in earlier work; settings: luminal breast cancer cell line T47D; ref 62 (Chen et al.); cited from earlier work
[4] = Homo sapiens, NFκB-MDA-MB-231-nanoluc cells, 2-h treatment, mean ± SD, read-out: NFκB Inhibition 2 h IC50
[5] = NFκB-MDA-MB-231-firefly cells, 24-h treatment, 20 ng/mL TNFα, mean ± SD
[6] = MDA-MB-231 2D monolayer, 24 h post-treatment, mean ± SD, read-out: Reduction of Cell Viability 24 h IC50
[7] = MDA-MB-231, 3D co-culture spheroids, 72 h treatment, mean ± SD (n = 3), read-out: Reduction of Cell Viability 72 h IC50

`COc1ccc2c(c1)c1cc(O)c(OC)cc1c1c[n+]3c(cc21)CCC3` [Compound (6), anhydrodehydrotylophorinidine] gave an IC50 (NFκB [1]; [4]) greater than 1000 nM, an IC50 (NFκB [2]; [5]) greater than 1000 nM and an IC50 (MDA-MB-231; [6]) greater than 1000 nM. The “cytotoxic activity” value [3] was “no cytotoxic activity”, the IC50 [3, 7] was greater than 1000 nM and the IC50 (CAFs; CAFs, mean ± SD (n = 3)) was greater than 1000 nM.

In the case of `CC(C)(C)c1ccc(S(=O)(=O)/C=C/C#N)cc1` [BAY 11-7085, reference compound], the IC50 (NFκB [1]; NFκB-MDA-MB-231-nanoluc cells, 2-h treatment, mean ± SD, read-out: NFκB Inhibition 2 h IC50) is reported as 5500 ± 2000 nM, the “effect on HIF-1α-mediated UnaG expression” value (HIF-1α; normoxia) is reported as “no significant effects” and the “CoCl2-induced increase in HIF-1α-activity” value (HIF-1α; pre-treatment before CoCl2-simulated hypoxia, 6 µM BAY 11-7085, 2, 5, 10, 20 nM (1s)) is reported as “blocked”.

For `COc1ccc2c(c1)c1cc(OC)c(OC)cc1c1c[n+]3c(cc21)CCC3` [Compound (5), tylophoridicine D], the IC50 (NFκB [1]; [4]) was greater than 1000 nM, the IC50 (NFκB [2]; [5]) was greater than 1000 nM and the IC50 (MDA-MB-231; [6]) was greater than 1000 nM. The IC50 [3, 7] was greater than 1000 nM, the “cytotoxic activity” value ([3]; in MDA-MB-231 or in the 3D co-culture spheroids) was “no cytotoxic activity” and the IC50 (CAFs; CAFs, mean ± SD (n = 3)) was greater than 1000 nM. For the same molecule, the “HIF induction under low oxygen level” value (HIF) was “not”.

For `COc1ccc2c3c(c4cc(OC)c(O)cc4c2c1)CN1CCC[C@H]1[C@H]3O` [Compound (2), tylophorinidine], the IC50 (NFκB [1]; [4]) was 212 ± 69.9 nM, the IC50 (NFκB [2]; [5]) was 38.2 ± 14.2 nM and the IC50 (MDA-MB-231; [6]) was 118 ± 35 nM. The IC50 [3, 7] was 442 ± 70.8 nM, the IC50 (CAFs; CAFs, mean ± SD (n = 3)) was 19.7 ± 3.7 nM and the “HIF induction under low oxygen level” value (HIF) was “blockade of HIF induction”.

Work on `COc1ccc2c3c(c4cc(OC)c(OC)cc4c2c1)CN1CCC[C@H]1C3` [Compound (4), 2-demethoxytylophorine] yielded an IC50 (NFκB [1]; Homo sapiens, 2 h, read-out: NFκB Inhibition 2 h IC50, NFκB-MDA-MB-231-nanoluc cells, 2-h treatment, mean ± SD) of 83 ± 14.7 nM, an IC50 (NFκB [2]; 24 h) of 28.3 ± 5.6 nM and an IC50 (MDA-MB-231; MDA-MB-231, 24 h, read-out: Reduction of Cell Viability 24 h IC50, MDA-MB-231 2D monolayer, 24 h post-treatment, mean ± SD) of 127 ± 21.4 nM. The IC50 ([3]; MDA-MB-231, 72 h, read-out: Reduction of Cell Viability 72 h IC50, 3D co-culture spheroids, 72 h treatment, mean ± SD (n = 3)) was 518 ± 76.8 nM and the IC50 (CAFs) was 33.5 ± 12.7 nM.

`COc1cc2c3c(c4ccc(O)cc4c2cc1OC)[C@H](O)[C@@H]1CCCN1C3` [Compound (3), tylophoridicine E] showed an IC50 (NFκB [1]; [4]) of 285 ± 60.4 nM, an IC50 (NFκB [2]; [5]) of 114 ± 17.9 nM and an IC50 (MDA-MB-231; [6]) of 55.3 ± 13.2 nM. For the same molecule, the IC50 [3, 7] was 477 ± 160 nM, the IC50 (CAFs; CAFs, mean ± SD (n = 3)) was 26.7 ± 3.1 nM and the “HIF induction under low oxygen level” value (HIF) was “blockade of HIF induction”.

For `COc1ccc2c3c(c4cc(OC)c(OC)cc4c2c1)CN1CCC[C@H]1[C@@H]3O` [tylophorinine], the “HIF induction under low oxygen level” value (HIF) is listed as “blockade of HIF induction”.
